For series [1], the system named is Leishmania donovani. Description: Antileishmanial activity against amastigote stage of Leishmania donovani MHOM/IN/80/Dd8 infected in mouse J-774A.1 cells after 72 hrs by luciferase reporter gene assay. It is filed as functional, organism-based. The following applies: MHOM/IN/80/Dd8, J774.A1, 72 h. On the technique in general: Reporter assays use an easily measured gene product as a stand-in for the process of interest.

Series [2] in a line: Cytotoxicity against African green monkey Vero cells assessed as cell viability after 72 hrs by MTT assay. It is filed as cell-based. The following applies: chlorocebus sabaeus.
Series [3] can be described thus: (§1) Selectivity index, ratio of CC50 to African green monkey Vero cells to IC50 for amastigote stage of Leishmania donovani MHOM/IN/80/Dd8. It is filed as functional.
Series [4] relates to Vero. Described as §1. It is filed as functional.
The subject of series [5] is Leishmania donovani. Briefly: Antileishmanial activity against amastigote stage of Leishmania donovani MHOM/IN/80/Dd8 infected in golden hamster assessed as inhibition of parasite multiplication in splen at 50 mg/kg/day, ip administered for 5 days measured on day 7 by Giemsa staining relative to control. It is filed as functional. The following applies: MHOM/IN/80/Dd8, ip, route intraperitoneal.

Series [6] concerns Syrian golden hamster. Briefly: Toxicity in golden hamster infected with amastigote stage of Leishmania donovani MHOM/IN/80/Dd8 assessed as appearance of abnormal behavior at 50 mg/kg/day, ip measured for 5 days. The settings on record: in vivo, 120 h. Also on record: route intraperitoneal. It is filed as organism-based, Mesocricetus auratus.
For series [7], the system named is J774.A1. Briefly: Immunostimulatory activity in Leishmania infected mouse J774A1 cells assessed as downregulation of IL-10 level at IC50 measured at 48 hrs by sandwich ELISA. The class given is functional, cell-based. (An ELISA detects its analyte on a solid surface through an enzyme-linked reagent.)
In series [8] the test system is J774.A1. Briefly: Immunostimulatory activity in Leishmania infected mouse J774A1 cells assessed as increase in nitric oxide production at IC50 measured at 48 hrs by sandwich ELISA. It is filed as functional, cell-based.
Series [9] deals with J774.A1. Description: Immunostimulatory activity in Leishmania infected mouse J774A1 cells assessed as downregulation of IL-10 level at IC50 measured at 24 hrs by sandwich ELISA. The class given is functional, cell-based.
The nature of series [10]: Immunostimulatory activity in Leishmania infected mouse J774A1 cells assessed as upregulation of TNF-alpha level at IC50 measured at 24 hrs by sandwich ELISA relative to untreated infected cell. It is filed as functional, cell-based. The following applies: J774.A1.
Series [11] has as its system J774.A1. Briefly: Immunostimulatory activity in Leishmania infected mouse J774A1 cells assessed as increase in nitric oxide production at IC50 measured at 24 hrs by sandwich ELISA relative to untreated infected cell. It is filed as functional.
In series [12] the test system is J774.A1. Description: Immunostimulatory activity in Leishmania infected mouse J774A1 cells assessed as downregulation of TGF-beta level at IC50 measured at 48 hrs by sandwich ELISA. It is filed as functional, cell-based.
Series [13] deals with J774.A1. Description: Immunostimulatory activity in Leishmania infected mouse J774A1 cells assessed as downregulation of TGF-beta level at IC50 measured at 24 hrs by sandwich ELISA relative to untreated infected cell. The class given is functional.
Series [14] is described as follows: Immunostimulatory activity in Leishmania infected mouse J774A1 cells assessed as upregulation of TNF-alpha level at IC50 measured at 48 hrs by sandwich ELISA. The following applies: J774.A1. It is filed as functional, cell-based.
The nature of series [15]: Immunostimulatory activity in Leishmania infected mouse J774A1 cells assessed as upregulation of IL-12 level at IC50 measured at 48 hrs by sandwich ELISA. It is filed as functional, cell-based. The following applies: J774.A1.
Series [16] can be described thus: Immunostimulatory activity in Leishmania infected mouse J774A1 cells assessed as upregulation of IL-12 level at IC50 measured at 24 hrs by sandwich ELISA relative to untreated infected cell. It is filed as functional, cell-based. The following applies: J774.A1.

For orientation: IC50 means the midpoint of a concentration-inhibition curve. Usually CC50 stands for the concentration at which the toxic effect on the cells reaches its halfway point. One may read the inhibition in vivo as the relative decrease from the control value, in per cent.

The source made the active and inactive calls. The calls are words filed in the database; no cut-off is given here. Bounds are passed on as bounds.

`CCCNc1nc(NCCCCOc2nc(Nc3ccccc3)nc(NC3CC3)n2)nc(Nc2ccccc2)n1` returned an IC50 in series [1] of 8.26 µM. In addition, in [2], the CC50 at 72 h turned out to be 18.2 µM. Also, the “Ratio CC50/IC50” value in series [3] came to 2.2.
On to `c1ccc(Nc2nc(NCCCCOc3nc(Nc4ccccc4)nc(N4CCc5ccccc5C4)n3)nc(N3CCc4ccccc4C3)n2)cc1`, for which, in [1], the IC50 was found to be 7.52 µM. For the same molecule, the cytotoxic concentration (CC50) at 72 h in [2] was above 400 µM. Further, the “Ratio CC50/IC50” value in [3] is recorded as above 53.19.
For `c1ccc(Nc2nc(NCCCCOc3nc(Nc4ccccc4)nc(NC4CC4)n3)nc(NC3CC3)n2)cc1`, the IC50 in [1] is above 40 µM.
Sodium stibogluconate: the Ratio CC50/IC50 in [4] stood at 8.56.
In series [1], `CC(C)(C)Nc1nc(NCCCCOc2nc(Nc3ccccc3)nc(NC(C)(C)C)n2)nc(Nc2ccccc2)n1` returned an IC50 of 0.77 µM. The CC50 at 72 h in series [2] was determined as 198 µM. In [3], the “Ratio CC50/IC50” value was 257.48. Moreover, the inhibition in vivo at 50 mg/kg/day in [5] amounted to 62.6%. In series [6], the Activity result is “Non-toxic”.
With `N=C(N)c1ccc(OCCCCCOc2ccc(C(=N)N)cc2)cc1` [PENTAMIDINE], the IC50 in [1] worked out at 13.7 µM. Further, the CC50 at 72 h in series [2] was found to be 85.9 µM. Besides, in [3], the “Ratio CC50/IC50” value amounted to 6.27.
The like results for `CN1CCN(c2nc(NCCCCOc3nc(Nc4ccccc4)nc(N4CCN(C)CC4)n3)nc(Nc3ccccc3)n2)CC1` were, in that order, 1.33 µM, 20.1 µM and 15.08.
Regarding `CCN1CCN(c2nc(NCCCCOc3nc(Nc4ccccc4)nc(N4CCN(CC)CC4)n3)nc(Nc3ccccc3)n2)CC1`, inhibition in [1] was half-maximal at 0.86 µM (IC50). Moreover, the CC50 at 72 h in [2] was 16.2 µM. In addition, the “Ratio CC50/IC50” value in [3] is listed as 18.87.
With `CCCCNc1nc(NCCCCOc2nc(NCCCC)nc(Nc3ccccc3)n2)nc(Nc2ccccc2)n1`, the IC50 in series [1] was determined as 3.21 µM. Besides, the CC50 at 72 h in [2] was above 400 µM. In series [3], the “Ratio CC50/IC50” value is reported as above 124.61.
In turn, `c1ccc(Nc2nc(NCCCCCOc3nc(Nc4ccccc4)nc(N4CCOCC4)n3)nc(N3CCOCC3)n2)cc1` had an IC50 in series [1] above 40 µM.
In turn, `CC(C)Nc1nc(NCCCCOc2nc(Nc3ccccc3)nc(NC(C)C)n2)nc(Nc2ccccc2)n1` displayed an IC50 in series [1] of 3.51 µM. For the same molecule, in series [2], the CC50 at 72 h is above 400 µM. Also, the “Ratio CC50/IC50” value in series [3] was above 113.96.
The like results for `Clc1nc(NCCCCCOc2nc(Cl)nc(Nc3ccccc3)n2)nc(Nc2ccccc2)n1` were, in that order, 8.98 µM, 17.1 µM and 1.9.
In series [1], `CCCCCCCCCCCCCCCCOP(=O)([O-])OCC[N+](C)(C)C` [MILTEFOSINE] gave an IC50 of 8.1 µM. For the same molecule, in [3], the “Ratio CC50/IC50” value amounted to 6.56.
As for `CCCNc1nc(NCCCCCOc2nc(NCCC)nc(Nc3ccccc3)n2)nc(Nc2ccccc2)n1`, the half-inhibitory concentration (IC50) in series [1] is above 40 µM.
`Clc1nc(NCCCCOc2nc(Cl)nc(Nc3ccccc3)n2)nc(Nc2ccccc2)n1` showed an IC50 in [1] of 10.3 µM. Moreover, the CC50 at 72 h in series [2] stood at 7.74 µM. The “Ratio CC50/IC50” value in series [3] was determined as 0.75.
For `c1ccc(Nc2nc(NCCCCOc3nc(Nc4ccccc4)nc(N4CCCc5ccccc54)n3)nc(N3CCCc4ccccc43)n2)cc1`, half-maximal inhibition in series [1] (IC50) was put at 8.98 µM. Also, the CC50 at 72 h in series [2] was 17.1 µM. Besides, the “Ratio CC50/IC50” value in series [3] stood at 1.9.
The like results for `c1ccc(Nc2nc(NCCCCOc3nc(NCCN4CCOCC4)nc(Nc4ccccc4)n3)nc(NCCN3CCOCC3)n2)cc1` were, in that order, 2.91 µM, 115 µM and 39.61.
In series [1], `c1ccc(Nc2nc(NCCCCOc3nc(Nc4ccccc4)nc(N4CCOCC4)n3)nc(N3CCOCC3)n2)cc1` gave a concentration for half-maximal inhibition (IC50) of 3.15 µM. In addition, the CC50 at 72 h in [2] came out at 276 µM. For the same molecule, the “Ratio CC50/IC50” value in series [3] amounted to 87.5.
Molecule `c1ccc(Nc2nc(NCCCCOc3nc(NCCCN4CCOCC4)nc(Nc4ccccc4)n3)nc(NCCCN3CCOCC3)n2)cc1` had an IC50 in series [1] of 1.7 µM. In addition, in series [2], the CC50 at 72 h stood at 13.8 µM. For the same molecule, the “Ratio CC50/IC50” value in series [3] was determined as 8.11.
As to `CCCNc1nc(NCCCCOc2nc(NCCC)nc(Nc3ccccc3)n2)nc(Nc2ccccc2)n1`, the result in series [7], in series [8], in [12], in series [14] and in series [15] was inactive. Besides, the outcome in series [9] was Active. Moreover, the fold change (FC) in series [10] amounted to 2; in series [11], 2; in [13] it was 1.8; in [16], 3. This molecule also had an IC50 in [1] of 1.99 µM. In [2], the CC50 at 72 h amounted to 216 µM. The “Ratio CC50/IC50” value in series [3] came out at 108.58. Also, in series [5], the inhibition in vivo at 50 mg/kg/day amounted to 74.4%. In addition, the Activity entry in series [6] was “Non-toxic”.
In series [1], `CCCCCNc1nc(NCCCCOc2nc(NCCCCC)nc(Nc3ccccc3)n2)nc(Nc2ccccc2)n1` gave an IC50 of 6.46 µM. In addition, the CC50 at 72 h in series [2] was above 400 µM. For the same molecule, in [3], the “Ratio CC50/IC50” value is recorded as above 61.92.
As for `CCCNc1nc(Nc2ccccc2)nc(OCCCCNc2nc(Nc3ccccc3)nc(NC3CC3)n2)n1`, in series [1], the concentration for half-maximal inhibition (IC50) is 2.65 µM. In series [2], the CC50 at 72 h was above 400 µM. Besides, in [3], the “Ratio CC50/IC50” value was above 150.94.

The values above are taken from ChEMBL document CHEMBL3091271, “Discovery of triazine mimetics as potent antileishmanial agents” (ACS Med Chem Lett, 2013).
